Experimental data taken from a compilation of properties of binary mixtures (doi:10.1016/j.molliq.2022.119918).

Assay: xn = mol fraction of the nth substance listed
Conditions: 100 kPa

CC(N)C(=O)[O-].COCCCCn1cc[n+](C)c1 + CS(C)=O
viscosity [mPa·s]
Conditions	x1 = 0.1009	x1 = 0.1996	x1 = 0.3012	x1 = 0.3985	x1 = 0.4922	x1 = 0.5996	x1 = 0.6966	x1 = 0.7973	x1 = 0.8997	x1 = 1
288.15 K	8.27	–	–	40.5	63.89	–	135.6	203	–	403
293.15 K	7.89	–	–	31.54	48.62	72	100.9	143.7	206	–
298.15 K	6.04	–	15.05	24.76	36.87	53.3	73	101.8	142.7	180.6
303.15 K	4.95	–	12.31	19.81	29.28	–	56.62	77.6	107.6	132.1
308.15 K	4.21	6.25	10.23	–	23.47	–	–	–	80.8	98.3
313.15 K	3.64	5.27	8.32	13.02	18.84	26.78	–	47.36	61.67	73.5
318.15 K	–	4.57	7.01	10.65	–	–	28.53	–	47.83	55.86

CS(C)=O + NC(C)C(=O)[O-].COCCCCN1C=[N+](C=C1)C
x2 = 0
Conditions	viscosity [mPa·s]
288.15 K	2.47
293.15 K	2.21
298.15 K	1.99
303.15 K	1.81
313.15 K	1.51
318.15 K	1.39

COCCCC[n+]1ccn(C)c1.NCC(=O)[O-] + CS(C)=O
viscosity [mPa·s]
Conditions	x1 = 0.1009	x1 = 0.1984	x1 = 0.299	x1 = 0.3986	x1 = 0.4986	x1 = 0.6006	x1 = 0.701	x1 = 0.7941	x1 = 0.907	x1 = 1
288.15 K	7.64	11.87	20.11	32.75	–	66.91	88.2	112	149.9	180.6
293.15 K	6.23	9.49	15.68	24.97	–	–	66.19	–	110.8	130.1
298.15 K	5.05	7.6	12.46	19.85	29.5	40.49	52.63	–	83.6	–
303.15 K	–	6.27	–	15.9	23.66	32.57	42.38	52.54	65.49	74.4
308.15 K	–	5.29	–	13.2	19.51	26.99	–	42.67	52.32	58.09
313.15 K	3.15	4.59	7.18	11.14	16.4	22.63	29.37	35.24	42.06	46.29
318.15 K	–	3.92	6.04	9.3	13.46	18.67	23.75	28.16	32.95	36.43

CS(C)=O + COCCCC[n+]1ccn(C)c1.NCC(=O)[O-]
x2 = 0
Conditions	viscosity [mPa·s]
288.15 K	2.47
293.15 K	2.21
298.15 K	1.99
303.15 K	1.81
313.15 K	1.51
318.15 K	1.39
